According to patent publication US20260272960A1, “[…] COMPOUNDS, PREPARATION METHOD AND USE THEREOF” (HC SYNTHETIC PHARMACEUTICAL CO., LTD., priority 2022, published 2026):
In brackets after ≈: the same amount, converted by molar mass. Read-outs that look alike come from different tables or passages of the source.

Key:
[1] = Solubility test in water, methanol and isopropanol; assay type: physicochemical
Procedure: The solubility in water, methanol, and isopropanol of the compounds of the present disclosure and the comparative compounds were measured separately.

[2] = Accelerated stability test; assay type: physicochemical; details: 40° C.±2° C., relative humidity 75%+5%
Procedure: The compound of the present disclosure was placed at a temperature of 40° C.±2° C. and a relative humidity of 75%+5% for 6 months, and samples were taken to determine for the descriptions, related substances, and contents.

[3] = test system: isolated ileal smooth muscle of guinea pigs; experiment: Effect on muscle tone of isolated ileal smooth muscle of guinea pigs (no histamine added); set-up: species or system guinea pig; details: 5 minutes after adding the drug, X ± s, n = 8
Procedure: The guinea pig was knocked unconscious with a wooden stick, and the abdomen was immediately dissected to separate the ileum about 15 cm in length. The contents of the intestinal segment were flushed with Tyrode's solution and placed in Tyrode's solution at a constant temperature of 37° C. for later use, and oxygen was supplied simultaneously. The experimental intestinal tract (1 cm in length) was cut and placed into 20 ml of Tyrode's solution at a constant temperature of 37° C. with a continuous oxygen supply. One end of the intestine was fixed on the ventilation hook and the other end was connected to the muscle tone transducer and led to the computer interface. The muscle tone value of the ileal smooth muscle was recorded with a BL system. The experiment was carried out after the intestinal segment contraction became stable. […] The operation was repeated 8 times. The antispasmodic percentage was calculated according to the following formula. [formula]

[4] = test system: histamine-induced asthma in guinea pigs; experiment: Antiasthmatic effect on histamine-induced asthma in guinea pigs (latency period); assay type: in vivo, guinea pig; details: 1 mg/kg oral gavage, sixty minutes after administration; no asthma within 8 minutes counted as 8 minutes; X ± s, n = 5
Procedure: The guinea pigs were placed in a polymethyl methacrylate bell jar and a histamine hydrochloride solution was sprayed ultrasonically (0.8 mg/mL) for 40 seconds. The time point at which the guinea pigs developed asthma was recorded. The time of convulsion and fall was taken as the latency period. Guinea pigs with a latency period exceeding 180 seconds were not selected. […] The guinea pigs were administered by oral gavage at a dose of 2 mL/kg·bw. Sixty minutes after the administration, the guinea pigs were placed in bell jars, and histamine hydrochloride solution was sprayed under the same conditions as in the previous selection. The latency period for the onset of asthma was recorded. […] The results were processed statistically.

[5] = isopropanol, organic solvent or mixture, isopropanol, read-out: Solubility, Isopropanol
[6] = methanol, organic solvent or mixture, methanol, read-out: Solubility, Methanol
[7] = water, read-out: Solubility, Water

solubility [1, 5] | solubility [1, 6] | Structure (SMILES) | also measured
24 mg/mL (≈ 59.2 mM) | 35 mg/mL (≈ 86.3 mM) | O=C1Cc2ccccc2C(=C2CCN(COP(=O)(O)O)CC2)c2ccsc21 [Compound III-1] | –
– | – | O=C1Cc2ccccc2C(=C2CCN(CCOP(=O)(O)O)CC2)c2ccsc21 [Compound III-2] | solubility ([1]; isopropanol, organic solvent or mixture, read-out: Solubility, Isopropanol): 24 mg/mL (≈ 57.2 mM)
– | 35 mg/mL (≈ 80.7 mM) | O=C1Cc2ccccc2C(=C2CCN(CCCOP(=O)(O)O)CC2)c2ccsc21 [Compound III-3] | –
24 mg/mL (≈ 53.6 mM) | 35 mg/mL (≈ 78.2 mM) | O=C1Cc2ccccc2C(=C2CCN(CCCCOP(=O)(O)O)CC2)c2ccsc21 [Compound III-4] | –
24 mg/mL (≈ 51.8 mM) | 38 mg/mL (≈ 82 mM) | O=C1Cc2ccccc2C(=C2CCN(CCCOCOP(=O)(O)O)CC2)c2ccsc21 [Compound III-7] | –
24 mg/mL (≈ 48.8 mM) | 38 mg/mL (≈ 77.3 mM) | O=C1Cc2ccccc2C(=C2CCN(CCCCCOCOP(=O)(O)O)CC2)c2ccsc21 [Compound III-9] | –
1 mg/mL | 35 mg/mL | O=C1Cc2ccccc2C(=C2CCN(COP(=O)([O-])[O-])CC2)c2ccsc21.[Na+].[Na+] [Compound IV-1] | Content ([2]; Month 1): 99.7%; Content ([2]; Month 3): 99.6%; solubility [1, 7]: 488 mg/mL
– | – | O=C1Cc2ccccc2C(=C2CCN(CCOP(=O)([O-])[O-])CC2)c2ccsc21.[K+].[K+] [Compound IV-2] | Content ([2]; Month 1): 99.7%; Content ([2]; Month 2): 99.7%; Content ([2]; Month 6): 99.6%
– | 38 mg/mL (≈ 87.7 mM) | O=C1Cc2ccccc2C(=C2CCN(CCCOP(=O)(O)O)CC2)c2ccsc21 [Compound IV-3] | solubility [1, 7]: 404 mg/mL (≈ 932 mM)
1 mg/mL | 35 mg/mL | O=C1Cc2ccccc2C(=C2CCN(CCCCOP(=O)([O-])[O-])CC2)c2ccsc21.[Na+].[Na+] [Compound IV-4] | Content ([2]; Month 1): 99.7%; Content ([2]; Month 3): 99.6%; solubility [1, 7]: 476 mg/mL
1 mg/mL | – | O=C1Cc2ccccc2C(=C2CCN(CCCCCOP(=O)([O-])[O-])CC2)c2ccsc21.[Na+].[Na+] [Compound IV-5] | solubility [1, 7]: 478 mg/mL
– | – | O=C1Cc2ccccc2C(=C2CCN(CCOCOP(=O)(O)O)CC2)c2ccsc21 [Compound IV-6] | Content ([2]; Month 3): 99.6%
– | – | O=C1Cc2ccccc2C(=C2CCN(CCCCOCOP(=O)([O-])[O-])CC2)c2ccsc21.[Na+].[Na+] [Compound IV-8] | Content ([2]; Month 1): 99.7%; Content ([2]; Month 2): 99.7%; Content ([2]; Month 6): 99.6%
2 mg/mL | 35 mg/mL | O=C1Cc2ccccc2C(=C2CCN(CCCCCOCOP(=O)([O-])[O-])CC2)c2ccsc21.[Na+].[Na+] [Compound IV-9] | solubility [1, 7]: 473 mg/mL
28 mg/mL (≈ 73.1 mM) | 22 mg/mL (≈ 57.5 mM) | OCCCCN1CCC(=C2c3ccc(Cl)cc3CCc3cccnc32)CC1 [Hydroxybutyl desloratadine, hydroxybutyl desloratadine, reference compound] | –
21 mg/mL (≈ 59.2 mM) | 27 mg/mL (≈ 76.1 mM) | OCCN1CCC(=C2c3ccc(Cl)cc3CCc3cccnc32)CC1 [Hydroxyethyl desloratadine, hydroxyethyl desloratadine, reference compound] | –
32 mg/mL (≈ 77.9 mM) | 15 mg/mL (≈ 36.5 mM) | OCCCCCCN1CCC(=C2c3ccc(Cl)cc3CCc3cccnc32)CC1 [Hydroxyhexyl desloratadine, hydroxyhexyl desloratadine, reference compound] | –
29 mg/mL (≈ 73.1 mM) | 19 mg/mL (≈ 47.9 mM) | OCCCCCN1CCC(=C2c3ccc(Cl)cc3CCc3cccnc32)CC1 [Hydroxypentyl desloratadine, hydroxypentyl desloratadine, reference compound] | –
26 mg/mL (≈ 70.5 mM) | 24 mg/mL (≈ 65.1 mM) | OCCCN1CCC(=C2c3ccc(Cl)cc3CCc3cccnc32)CC1 [Hydroxypropyl desloratadine, hydroxypropyl desloratadine, reference compound] | –
20 mg/mL (≈ 49.9 mM) | 30 mg/mL (≈ 74.9 mM) | Cc1cncc(CN2CCC(=C3c4ccccc4CC(=O)c4sccc43)CC2)c1 [Rupatifen, rupatifen, reference compound] | –

Structure (SMILES) | solubility [1, 5] | solubility [1, 6] | also measured
CN1CCC(=C2c3ccccc3CC(=O)c3sccc32)CC1 [Ketotifen, ketotifen] | 20 mg/mL (≈ 64.6 mM) | 30 mg/mL (≈ 97 mM) | Smooth muscle tone (g) After administration [3]: 1.30 ± 0.30 g; Antispasmodic percentage (%) ([3]; no histamine): 23.53 ± 10.10%; Post-administration latency period [4]: 263.11 ± 54.90 s
